Where two headings read alike, the source gives them in different places. Where a SMILES comes first, the peptide text is derived from it. Bridges are numbered along the chain shown (N, C = ends).
Columns and labels:
KV1.1 = molecular target: T1, KV1.1 (Rattus norvegicus, UniProt P10499); experiment: Two-electrode voltage clamp on KV1.1 expressed in Xenopus oocytes; type: cell-based; settings: for IC50: rKV1.1, Xenopus oocytes, two-electrode voltage clamp, ND96 pH 7.4, 18–22°C, 0 mV from −90 mV
T1 construct: expressed in transfected cells; host or cells: Xenopus laevis oocytes injected with cRNA
Protocol: (§1) Ion Channel Expression in Xenopus Oocytes
(§2) The major pipeline of ion channel expression in oocytes was described previously ([Peigneur et al., 2011]). Briefly, for the expression of KV genes (rat (r)KV1.1, rKV1.2, human (h)KV1.3, rKV1.4, rKV1.5, and rKV1.6) in Xenopus laevis oocytes, linearized plasmids containing the respective gene sequences were transcribed using the T7 mMESSAGE-mMACHINE transcription kit (Ambion). 50 nl of cRNA solution (1 ng/nl) were injected into oocytes using a micro-injector (Drummond Scientific). The oocytes were incubated in ND96 solution: 96 mM NaCl, 2 mM KCl, 1.8 mM CaCl2, 2 mM MgCl2 and 5 mM HEPES, pH 7.4, supplemented with 50 mg/l gentamycin sulfate.
(§3) Electrophysiological Recordings
(§4) Two-electrode voltage-clamp recordings were performed at room temperature (18–22°C) using a Geneclamp 500 amplifier (Molecular Devices) controlled by a pClamp data acquisition system (Axon Instruments) as described ([Peigneur et al., 2011]). Bath solution composition was ND96. KV currents were evoked by 250-ms depolarization to 0 mV from a holding potential of −90 mV, followed by 250-ms pulses to −50 mV. For current–voltage relationship studies, currents were evoked by 10-mV depolarization steps. Concentration–response curves were constructed, in which the percentage of current inhibition was plotted as a function of toxin concentration. Data were fitted with the Hill equation: y = 100/[1 + (IC50/[toxin])^h], where y is the amplitude of the toxin-induced effect, [toxin] is toxin concentration, and h is the Hill coefficient. Comparison of two sample means was performed using a paired Student’s t-test (p-value of 0.05 was used as a threshold of significance). All data were obtained in at least three independent experiments (n ≥ 3) and are presented as mean ± standard error of the mean.

KV1.2 = molecular target: T2, KV1.2 (Rattus norvegicus, UniProt P63142); experiment: Two-electrode voltage clamp on KV1.2 expressed in Xenopus oocytes; type: cell-based
T2 construct: expressed in transfected cells; host or cells: Xenopus laevis oocytes injected with cRNA
Protocol: as §1, §2, §3, §4

KV1.6 = molecular target: T3, KV1.6 (Rattus norvegicus, UniProt P17659); experiment: Two-electrode voltage clamp on KV1.6 expressed in Xenopus oocytes; type: cell-based; settings: mean ± SEM, n ≥ 3
T3 construct: expressed in transfected cells; host or cells: Xenopus laevis oocytes injected with cRNA
Protocol: as §1, §2, §3
(§5) Two-electrode voltage-clamp recordings were performed at room temperature (18–22°C) using a Geneclamp 500 amplifier (Molecular Devices) controlled by a pClamp data acquisition system (Axon Instruments) as described ([Peigneur et al., 2011]). Bath solution composition was ND96. KV currents were evoked by 250-ms depolarization to 0 mV from a holding potential of −90 mV, followed by 250-ms pulses to −50 mV. For current–voltage relationship studies, currents were evoked by 10-mV depolarization steps. Concentration–response curves were constructed, in which the percentage of current inhibition was plotted as a function of toxin concentration. […]

KV1.3 [1] = molecular target: T4, KV1.3 (Homo sapiens, UniProt P22001); experiment: Two-electrode voltage clamp on KV1.3 expressed in Xenopus oocytes; type: cell-based; set-up: expressed in transfected cells; host or cells: Xenopus laevis oocytes injected with cRNA; settings: for inhibition at 0.01 µM: 10 nM, KV1.3, Xenopus oocytes, read-out: inhibition of potassium current
Protocol: as §1, §2, §3, §4

KV1.4 = molecular target: T5, KV1.4 (Rattus norvegicus, UniProt P15385); experiment: Two-electrode voltage clamp on KV1.4 expressed in Xenopus oocytes; type: cell-based; settings: rKV1.4, Xenopus oocytes, up to 1 µM
T5 construct: expressed in transfected cells; host or cells: Xenopus laevis oocytes injected with cRNA
Protocol: as §1, §2, §3, §5

KV1.5 = molecular target: T6, KV1.5 (Rattus norvegicus, UniProt P19024); experiment: Two-electrode voltage clamp on KV1.5 expressed in Xenopus oocytes; type: cell-based; settings: rKV1.5, Xenopus oocytes, up to 1 µM
T6 construct: expressed in transfected cells; host or cells: Xenopus laevis oocytes injected with cRNA
Protocol: as §1, §2, §3, §5

KV1.3 [2] = molecular target: T4, KV1.3
rat KV1.1 (rat) [3] = molecular target: rat KV1.1 (rat) (UniProt P10499)
rat KV1.2 (rat) [4] = molecular target: rat KV1.2 (rat) (UniProt P63142)
rat KV1.6 (rat) [5] = molecular target: rat KV1.6 (rat) (UniProt P17659)
rat KV1.1 (rat) [6] = molecular target: rat KV1.1 (rat) (UniProt P10499); remark: listed apart in the source
rat KV1.1 (rat) [7] = molecular target: rat KV1.1 (rat) (UniProt P10499); remark: listed apart in the source
KV1.3 [8] = molecular target: T4, KV1.3; remark: listed apart in the source
rat KV1.2 (rat) [9] = molecular target: rat KV1.2 (rat) (UniProt P63142); remark: listed apart in the source
rat KV1.6 (rat) [10] = molecular target: rat KV1.6 (rat) (UniProt P17659); remark: listed apart in the source

Sequence of rat KV1.1 (rat) (P10499 whole entry): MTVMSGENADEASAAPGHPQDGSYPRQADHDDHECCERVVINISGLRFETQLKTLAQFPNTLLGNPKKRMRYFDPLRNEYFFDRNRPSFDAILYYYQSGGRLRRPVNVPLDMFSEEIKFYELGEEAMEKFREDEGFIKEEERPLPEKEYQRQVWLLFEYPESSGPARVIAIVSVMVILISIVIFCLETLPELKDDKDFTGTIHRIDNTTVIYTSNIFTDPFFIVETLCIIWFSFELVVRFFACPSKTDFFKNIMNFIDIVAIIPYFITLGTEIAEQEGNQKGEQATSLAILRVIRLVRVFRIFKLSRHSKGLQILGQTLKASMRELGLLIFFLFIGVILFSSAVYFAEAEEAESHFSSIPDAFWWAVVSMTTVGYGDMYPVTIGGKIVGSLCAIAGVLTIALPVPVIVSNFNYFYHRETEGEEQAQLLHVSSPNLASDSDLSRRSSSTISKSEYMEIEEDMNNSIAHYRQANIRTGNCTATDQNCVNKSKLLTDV
T1 sequence (P10499 whole entry): as above
T4 sequence (P22001 whole entry): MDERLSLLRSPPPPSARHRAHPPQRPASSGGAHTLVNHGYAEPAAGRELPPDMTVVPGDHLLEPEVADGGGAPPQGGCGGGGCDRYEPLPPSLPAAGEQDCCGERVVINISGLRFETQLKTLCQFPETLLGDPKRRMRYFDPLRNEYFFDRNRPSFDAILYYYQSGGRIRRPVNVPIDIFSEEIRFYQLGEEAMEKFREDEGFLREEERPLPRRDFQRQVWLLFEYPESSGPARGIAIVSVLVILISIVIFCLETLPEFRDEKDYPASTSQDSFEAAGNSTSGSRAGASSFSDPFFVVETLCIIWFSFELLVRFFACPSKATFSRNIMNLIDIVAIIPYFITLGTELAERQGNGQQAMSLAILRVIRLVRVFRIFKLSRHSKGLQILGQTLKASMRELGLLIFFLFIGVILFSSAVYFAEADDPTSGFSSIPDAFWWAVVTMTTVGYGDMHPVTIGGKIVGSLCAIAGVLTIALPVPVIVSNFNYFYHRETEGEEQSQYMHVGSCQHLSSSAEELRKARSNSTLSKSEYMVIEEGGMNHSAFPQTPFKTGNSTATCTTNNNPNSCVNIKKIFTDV
T2 sequence (P63142 whole entry): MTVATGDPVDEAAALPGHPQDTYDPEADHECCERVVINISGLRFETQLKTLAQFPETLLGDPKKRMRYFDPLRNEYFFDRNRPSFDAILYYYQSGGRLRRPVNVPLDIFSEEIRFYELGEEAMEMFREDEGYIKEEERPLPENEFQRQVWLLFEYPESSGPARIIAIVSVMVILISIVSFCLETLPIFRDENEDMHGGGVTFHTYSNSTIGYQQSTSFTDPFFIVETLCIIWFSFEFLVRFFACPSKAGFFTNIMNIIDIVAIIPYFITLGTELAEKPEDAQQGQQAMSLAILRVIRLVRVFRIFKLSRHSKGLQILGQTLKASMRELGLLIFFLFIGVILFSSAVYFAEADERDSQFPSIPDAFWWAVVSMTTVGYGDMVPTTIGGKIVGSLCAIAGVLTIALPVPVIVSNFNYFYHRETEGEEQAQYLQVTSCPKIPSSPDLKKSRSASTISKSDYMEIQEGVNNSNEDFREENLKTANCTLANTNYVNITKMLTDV
Sequence of rat KV1.6 (rat) (P17659 whole entry): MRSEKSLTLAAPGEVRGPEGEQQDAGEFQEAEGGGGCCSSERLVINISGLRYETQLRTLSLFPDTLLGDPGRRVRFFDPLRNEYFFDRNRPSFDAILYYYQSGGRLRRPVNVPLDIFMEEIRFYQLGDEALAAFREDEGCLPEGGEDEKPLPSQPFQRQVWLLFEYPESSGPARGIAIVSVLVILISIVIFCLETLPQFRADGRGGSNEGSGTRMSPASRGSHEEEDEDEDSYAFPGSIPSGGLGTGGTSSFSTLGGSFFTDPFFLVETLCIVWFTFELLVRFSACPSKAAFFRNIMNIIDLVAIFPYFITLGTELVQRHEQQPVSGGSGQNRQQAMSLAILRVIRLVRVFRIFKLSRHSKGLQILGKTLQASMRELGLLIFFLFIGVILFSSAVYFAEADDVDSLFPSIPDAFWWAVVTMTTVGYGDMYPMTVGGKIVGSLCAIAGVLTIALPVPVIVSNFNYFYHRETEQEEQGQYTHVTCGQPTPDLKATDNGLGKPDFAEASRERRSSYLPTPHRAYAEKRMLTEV
T3 sequence (P17659 whole entry): as above
Sequence of rat KV1.2 (rat) (P63142 whole entry): as the sequence (P63142 whole entry) above
T6 sequence (P19024 whole entry): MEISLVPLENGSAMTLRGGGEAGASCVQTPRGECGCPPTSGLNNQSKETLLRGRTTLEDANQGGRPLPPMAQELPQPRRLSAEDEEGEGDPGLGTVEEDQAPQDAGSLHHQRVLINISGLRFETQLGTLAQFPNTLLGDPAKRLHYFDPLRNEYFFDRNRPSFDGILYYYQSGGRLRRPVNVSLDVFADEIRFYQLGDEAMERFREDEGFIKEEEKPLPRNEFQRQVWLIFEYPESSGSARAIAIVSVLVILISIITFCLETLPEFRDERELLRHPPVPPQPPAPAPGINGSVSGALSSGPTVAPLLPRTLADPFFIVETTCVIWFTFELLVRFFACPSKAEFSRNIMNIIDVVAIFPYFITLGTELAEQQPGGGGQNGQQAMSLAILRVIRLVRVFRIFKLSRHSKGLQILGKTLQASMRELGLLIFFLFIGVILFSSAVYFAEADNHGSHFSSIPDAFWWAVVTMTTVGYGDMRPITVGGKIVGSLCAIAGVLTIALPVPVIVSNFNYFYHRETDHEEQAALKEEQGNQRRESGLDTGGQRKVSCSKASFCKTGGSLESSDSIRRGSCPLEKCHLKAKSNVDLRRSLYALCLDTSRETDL
T5 sequence (P15385 whole entry): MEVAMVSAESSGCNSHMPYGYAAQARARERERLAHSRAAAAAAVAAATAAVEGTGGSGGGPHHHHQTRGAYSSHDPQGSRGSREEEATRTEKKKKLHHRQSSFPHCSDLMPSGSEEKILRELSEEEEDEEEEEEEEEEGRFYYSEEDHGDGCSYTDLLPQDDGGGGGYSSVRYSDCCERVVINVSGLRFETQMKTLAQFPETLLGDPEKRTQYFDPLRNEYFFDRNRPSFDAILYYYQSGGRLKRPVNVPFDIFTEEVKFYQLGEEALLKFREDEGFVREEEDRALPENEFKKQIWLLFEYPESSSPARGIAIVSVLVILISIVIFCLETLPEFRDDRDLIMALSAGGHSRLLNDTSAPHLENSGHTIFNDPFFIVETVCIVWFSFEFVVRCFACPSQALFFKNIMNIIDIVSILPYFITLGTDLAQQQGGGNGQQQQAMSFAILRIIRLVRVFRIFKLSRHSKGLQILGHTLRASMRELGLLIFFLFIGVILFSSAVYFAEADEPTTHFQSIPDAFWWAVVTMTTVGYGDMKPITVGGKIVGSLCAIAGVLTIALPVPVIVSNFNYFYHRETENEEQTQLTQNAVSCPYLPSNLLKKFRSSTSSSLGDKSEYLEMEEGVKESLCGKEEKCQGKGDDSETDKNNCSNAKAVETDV

CC[C@H](C)[C@H](NC(=O)CNC(=O)[C@@H](N)C(C)C)C(=O)N[C@@H](CC(N)=O)C(=O)N[C@H](C(=O)N[C@@H](CCCCN)C(=O)N[C@H]1CSSC[C@@H]2NC(=O)[C@H](CCCCN)NC(=O)CNC(=O)[C@H](Cc3ccccc3)NC(=O)[C@H](CCCNC(=N)N)NC(=O)[C@H](CCSC)NC(=O)CNC(=O)[C@H](C)NC(=O)[C@H](CC(=O)O)NC(=O)[C@H](CCCCN)NC(=O)[C@@H]3CSSC[C@@H](C(=O)N[C@H](C(=O)N4CCC[C@H]4C(=O)N[C@@H](CCCCN)C(N)=O)[C@@H](C)O)NC(=O)[C@H](CC(=O)O)NC(=O)[C@H](CSSC[C@H](NC(=O)[C@H](CCC(N)=O)NC(=O)CNC(=O)[C@H](CO)NC(=O)[C@H](Cc4c[nH]cn4)NC(=O)[C@H](CCCCN)NC1=O)C(=O)N[C@@H](CC(C)C)C(=O)N[C@@H](CCCCN)C(=O)N1CCC[C@H]1C(=O)N3)NC(=O)[C@H](CCCCN)NC(=O)CNC(=O)[C@H](CC(N)=O)NC(=O)[C@H]([C@@H](C)CC)NC2=O)C(C)C [MeKTx13-3] (H-VGINVKCKHSGQCLKPCKDAGMRFGKCINGKCDCTPK-NH2; disulfide 7-27, 13-32, 17-34; N-terminus and C-terminus assumed)
Hill coefficient (KV1.1; KV1.1 concentration–response, mean ± SEM, n ≥ 3): 0.9 ± 0.1 | Hill coefficient (KV1.2; KV1.2 concentration–response, mean ± SEM, n ≥ 3): 1.3 ± 0.3 | Hill coefficient (KV1.6; KV1.6 concentration–response): 1.0 ± 0.1 | inhibition at 0.01 µM (KV1.3 [1]): ~50% | Hill coefficient (KV1.3 [1]; KV1.3 concentration–response, mean ± SEM, n ≥ 3): 0.8 ± 0.2

CC[C@H](C)[C@H](NC(=O)CNC(=O)[C@@H](N)C(C)C)C(=O)N[C@@H](CC(N)=O)C(=O)N[C@H](C(=O)N[C@@H](CCCCN)C(=O)N[C@H]1CSSC[C@@H]2NC(=O)[C@H](CCCCN)NC(=O)CNC(=O)[C@H](Cc3ccccc3)NC(=O)[C@H](CCCNC(=N)N)NC(=O)[C@H](CCSC)NC(=O)CNC(=O)[C@H](C)NC(=O)[C@H](CC(=O)O)NC(=O)[C@H](C)NC(=O)[C@@H]3CSSC[C@@H](C(=O)N[C@H](C(=O)N4CCC[C@H]4C(=O)N[C@@H](CCCCN)C(=O)O)[C@@H](C)O)NC(=O)[C@H](CCCNC(=N)N)NC(=O)[C@H](CSSC[C@H](NC(=O)[C@H](C)NC(=O)CNC(=O)[C@H](CO)NC(=O)[C@H](Cc4c[nH]cn4)NC(=O)[C@H](CCCCN)NC1=O)C(=O)N[C@@H](CC(C)C)C(=O)N[C@@H](C)C(=O)N1CCC[C@H]1C(=O)N3)NC(=O)[C@H](CCCCN)NC(=O)CNC(=O)[C@H](CC(N)=O)NC(=O)[C@H]([C@@H](C)CC)NC2=O)C(C)C [MeKTx13-3_AAAR] (H-VGINVKCKHSGACLAPCADAGMRFGKCINGKCRCTPK-OH; disulfide 7-27, 13-32, 17-34)
inhibition at 0.01 µM (KV1.1; 10 nM, KV1.1, Xenopus oocytes, read-out: inhibition of potassium current): ~15% | IC50 (KV1.1; mean ± SEM, n ≥ 3): 541 ± 48.6 nM | inhibition at 0.01 µM (KV1.2; 10 nM, KV1.2, Xenopus oocytes, read-out: inhibition of potassium current): ~5% | IC50 (KV1.2; rKV1.2, Xenopus oocytes, two-electrode voltage clamp, ND96 pH 7.4, 18–22°C, 0 mV from −90 mV, mean ± SEM, n ≥ 3): 208 ± 15.2 nM | IC50 (KV1.4): > 1000 nM | IC50 (KV1.5): > 1000 nM | IC50 (KV1.6; rKV1.6, Xenopus oocytes, two-electrode voltage clamp, ND96 pH 7.4, 18–22°C, 0 mV from −90 mV): 1520 ± 183 nM | inhibition at 0.01 µM (KV1.3 [1]): ~50% | IC50 (KV1.3 [1]; hKV1.3, Xenopus oocytes, two-electrode voltage clamp, ND96 pH 7.4, 18–22°C, 0 mV from −90 mV, mean ± SEM, n ≥ 3): 9.1 ± 0.4 nM | KV1.1/KV1.3 selectivity factor (KV1.3 [1]; ratio of IC50 values KV1.1/KV1.3): 60

CC[C@H](C)[C@H](NC(=O)CNC(=O)[C@@H](N)C(C)C)C(=O)N[C@@H](CC(N)=O)C(=O)N[C@H](C(=O)N[C@@H](CCCCN)C(=O)N[C@H]1CSSC[C@@H]2NC(=O)[C@H](CCCCN)NC(=O)CNC(=O)[C@H](Cc3ccccc3)NC(=O)[C@H](CCCNC(=N)N)NC(=O)[C@H](CCSC)NC(=O)CNC(=O)[C@H](C)NC(=O)[C@H](CC(=O)O)NC(=O)[C@H](CCCCN)NC(=O)[C@@H]3CSSC[C@@H](C(=O)N[C@H](C(=O)N4CCC[C@H]4C(=O)N[C@@H](CCCCN)C(=O)O)[C@@H](C)O)NC(=O)[C@H](CC(=O)O)NC(=O)[C@H](CSSC[C@H](NC(=O)[C@H](CCC(N)=O)NC(=O)CNC(=O)[C@H](CO)NC(=O)[C@H](Cc4c[nH]cn4)NC(=O)[C@H](CCCCN)NC1=O)C(=O)N[C@@H](CC(C)C)C(=O)N[C@@H](CCCCN)C(=O)N1CCC[C@H]1C(=O)N3)NC(=O)[C@H](CCCCN)NC(=O)CNC(=O)[C@H](CC(N)=O)NC(=O)[C@H]([C@@H](C)CC)NC2=O)C(C)C [Recombinant MeKTx13-3] (H-VGINVKCKHSGQCLKPCKDAGMRFGKCINGKCDCTPK-OH; disulfide 7-27, 13-32, 17-34)
IC50 (KV1.1; mean ± SEM, n ≥ 3): 6.7 ± 2.7 nM | inhibition at 0.01 µM (KV1.3 [1]): ~50%

MeKTx13-3, natural toxin from Mesobuthus eupeus venom (peptide)
IC50 of inhibition of potassium current, two-electrode voltage clamp, X. laevis oocytes (KV1.3 [2]): 8.9 nM | IC50 of inhibition of potassium current, two-electrode voltage clamp, X. laevis oocytes (rat KV1.1 (rat) [3]): 1.9 nM | IC50 of inhibition of potassium current, two-electrode voltage clamp, X. laevis oocytes (rat KV1.2 (rat) [4]): 106 nM | IC50 of inhibition of potassium current, two-electrode voltage clamp, X. laevis oocytes (rat KV1.6 (rat) [5]): 63.4 nM | percent of potassium current blocked at 10 nM toxin, two-electrode voltage clamp, X. laevis oocytes (rat KV1.1 (rat) [6]): > 95%

Recombinant MeKTx13-3 (peptide)
IC50 of inhibition of potassium current, two-electrode voltage clamp, X. laevis oocytes (rat KV1.1 (rat) [7]): 6.7 nM | percent of potassium current blocked at 10 nM toxin, two-electrode voltage clamp, X. laevis oocytes (KV1.3 [8]): 50% | percent of potassium current blocked at 10 nM toxin, two-electrode voltage clamp, X. laevis oocytes (rat KV1.1 (rat) [6]): > 95% | percent of potassium current blocked at 10 nM toxin, two-electrode voltage clamp, X. laevis oocytes (rat KV1.2 (rat) [9]): 25% | percent of potassium current blocked at 10 nM toxin, two-electrode voltage clamp, X. laevis oocytes (rat KV1.6 (rat) [10]): 15%

— paper PMC7358528, “Tuning Scorpion Toxin Selectivity: Switching From KV1.1 to KV1.3” (Frontiers in Pharmacology, 2020)
